{"source": "patent US9388123B2", "about": "“LSD1-selective inhibitor having lysine structure” (KYOTO UNIVERSITY, priority 2012, dated 2016)", "format_in_all_cases": "cell-based", "key": {"[1]": {"tested_on": "HeLa cells", "assay": "Cancer cell growth inhibition evaluation (MTT assay)", "settings": "Homo sapiens, 48 h, read-out: GI50 (μM) HeLa", "procedure": "(§1) Evaluation was performed by measuring the inhibitory activities of a compound against the growth of a human cervical cancer-derived cell line, HeLa cells, and a human neuroblastoma cell line, SH-SY5Y cells. Details thereof are shown below. […] This assay involves, as a principle thereof, measuring an absorbance at the time of color development through a reaction of NADH, which is contained in the mitochondria of viable cells, and MTT to measure the amount of NADH. The assay was performed by the following procedure. […] After the culture, a compound was added. Then, the cells were cultured for an additional 48 hours, and then 5 mg/ml MTT liquid was added at 10 μl per well. The cells were cultured for an additional 3 hours in a CO2 incubator. A solubilization solution (0.04 mol/l hydrochloric acid-isopropanol) was added at 100 μl per well and the mixture was vigorously vortexed. After that, an absorbance at 560 nm was measured with Fusion-aFP (manufactured by PerkinElmer) and the amount of viable cells was determined."}, "[2]": {"tested_on": "SH-SY5Y cells", "assay": "Cancer cell growth inhibition evaluation (MTT assay)", "settings": "Homo sapiens, read-out: GI50 (μM) SH-SY5Y", "procedure": "as §1"}, "[3]": {"tested_on": "K562", "assay": "Leukemia cell growth inhibition evaluation (WST-8)", "settings": "Homo sapiens, day 3 (72-hour culture), read-out: Human leukemia cell line GI50 (μM) K562", "description": "(§2) HL60, THP-1, K562, U937, KGla, HEL, and MDS-L were used as human leukemia cells. The cell lines are cell lines established from various subtypes such as acute myeloid leukemia, acute promyelocytic leukemia, acute monocytic leukemia, acute erythroid leukemia, and myelodysplastic syndromes, which progress to leukemia. Cells obtained by introducing leukemia fusion genes MLL/AF9, MLL/SEPT6, and MLL/ENL into the bone marrow of normal mice with a retrovirus so as to develop leukemia were used as murine leukemia cell lines.\n(§3) This assay method involves, as a principle thereof, measuring an absorbance (a peak at from 450 nm to 490 nm) at the time of color development through a reaction of NADH, which is contained in the mitochondria of viable cells, and WST-8 to measure the amount of NADH. Specifically, the assay was performed by the following procedure.\n(§4) The cells were plated at 50 μl, i.e., 5,000 cells per well in a 96-well microtiter plate. Next, a test compound dissolved in DMSO was mixed at various concentrations into the same medium, and 50 μl of each of the mixtures was added to each well. A medium was prepared so that the final concentration of the test compound was from 0 μM to 50 μM and so that the addition amount of DMSO was the same, and the cells were cultured in a CO2 incubator. On day 0 before the addition and on day 1, day 2, and day 3 after the addition, WST-8 reagent was added at 20 μl per well, and the cells were cultured for 1 hour in a CO2 incubator. After that, measurement was performed with ARVO X3 (manufactured by PerkinElmer).\n(§5) Specifically, an absorbance at 450 nm was measured, an absorbance at 595 nm was measured in the same well, and the absorbance at 595 nm was subtracted from the absorbance at 450 nm to perform background correction for the well itself. Further, a well containing only a medium free of cells was subjected to the same measurement. A value in this case was also subtracted. Thus, the amount of viable cells was represented as a numerical value with correction of the influence of a medicament or a medium as well. Under a condition not containing the test compound (addition of only dimethyl sulfoxide), an exponential increase in number of viable cells on day 1, day 2, and day 3 in the stated order was confirmed."}, "[4]": {"tested_on": "M7", "assay": "Leukemia cell growth inhibition evaluation (WST-8)", "settings": "Homo sapiens; day 3 (72-hour culture); read-out: Human leukemia cell line GI50 (μM) M7", "description": "as §2, §3, §4, §5"}, "[5]": {"tested_on": "bone marrow cells of normal mice", "assay": "Normal cell growth inhibition evaluation (colony forming ability in methylcellulose semi-solid medium)", "settings": "10 days culture, FIG. 1", "description": "In general, a semi-solid medium obtained by adding a cytokine involved in differentiation induction to a methylcellulose medium is used to evaluate a colony forming ability. Some of the bone marrow cells contain hematopoietic stem cells and precursor cells, which are sources of hematopoietic cells, and these cells can create a mass (called a colony) formed of several tens, several hundreds, and in some cases, several thousands of cells from a single cell on a semi-solid medium. The colony forming ability of the bone marrow cells may be evaluated by counting the number of the colonies. The colony forming ability in the semi-solid medium well reflects an actual supply ability and construction ability from the hematopoietic stem cells and precursor cells to the hematopoietic cells in vivo.\nTo 3 ml of MethoCult M3434 (methylcellulose-based semi-solid medium; StemCell Technologies; containing interleukin 3(IL-3), interleukin 6 (IL-6), erythropoietin (EPO), and stem cell factor (SCF)) were added 600,000 bone marrow cells of normal mice (suspended in 300 μl of IMDM medium), and the mixture was stirred well and plated at 1.1 ml per 3.5-cm culture dish. The cells were cultured under the conditions of 5% CO2 and 37° C. for 10 days in an incubator. A mass in which the number of cells was 50 or more was defined as a colony, and the number of colonies formed on each dish was counted."}, "[6]": {"settings": "at a concentration of up to 5 μM"}}, "note": "Structures can show the parent of a compound that is named as a salt."}
{"molecule": "O=C(N[C@@H](CCCCNC1CC1c1ccccc1)C(=O)NCc1ccccc1)c1ccc(-c2ccccc2)cc1", "note": "(stereo partly drawn) [Example 8, 2-[N-(4-Phenylbenzenecarbonyl)]amino-6-(trans-2-phenylcyclopropan-1-amino)-N-benzylhexanamide Hydrochloride]", "values": [{"measurement": "GI50", "setting": "[1]", "result": 11, "unit": "µM"}, {"measurement": "GI50", "setting": "[2]", "result": 4, "unit": "µM"}, {"measurement": "GI50", "setting": "[3]", "result": 3.2, "unit": "µM"}, {"measurement": "GI50", "setting": "[4]", "result": "~6", "unit": "µM"}, {"measurement": "colony forming ability", "setting": "[5]; at 10 μM", "result": "remarkably inhibited"}, {"measurement": "colony forming ability", "setting": "[5]; [6]", "result": "not inhibited"}]}
{"molecule": "O=C(N[C@@H](CCCCNC1CC1c1ccccc1)C(=O)NCc1cccc(C(F)(F)F)c1)c1ccc(-c2ccccc2)cc1", "note": "(stereo partly drawn) [Example 19, 2-[N-(4-Phenylbenzenecarbonyl)]amino-6-(trans-2-phenylcyclopropan-1-amino)-N-(3-trifluoromethylbenzyl)hexanamide Hydrochloride]", "values": [{"measurement": "GI50", "setting": "[1]", "result": 4.3, "unit": "µM"}, {"measurement": "GI50", "setting": "[2]", "result": 2.9, "unit": "µM"}, {"measurement": "colony forming ability", "setting": "[5]; at 10 μM", "result": "remarkably inhibited"}, {"measurement": "colony forming ability", "setting": "[5]; [6]", "result": "not inhibited"}]}
